Experimental findings from ChEMBL document CHEMBL3525956, “Species independence in brain tissue binding using brain homogenates” (Drug Metab Dispos, 2011) are described below.

The nature of data set [1]: Fraction unbound in CD-1 mouse brain homogenates at 1 uM after 6 hrs by equilibrium dialysis method. To be noted: brain homogenate.
The nature of data set [2]: Fraction unbound in human occipital cortex at 1 uM after 6 hrs by equilibrium dialysis method.
Data set [3] in a line: Fraction unbound in Sprague-Dawley rat brain homogenates at 1 uM after 6 hrs by equilibrium dialysis method. Particulars: brain homogenate.
Data set [4] in a line: Fraction unbound in Hartley guinea pig brain homogenates at 1 uM after 6 hrs by equilibrium dialysis method. Particulars: brain homogenate.
A short description of data set [5]: Fraction unbound in Wistar Han rat brain homogenates at 1 uM after 6 hrs by equilibrium dialysis method. Particulars: brain homogenate.
Data set [6] in a line: Fraction unbound in cynomolgus monkey brain homogenates at 1 uM after 6 hrs by equilibrium dialysis method. Particulars: brain homogenate.
The nature of data set [7]: Fraction unbound in Beagle dog brain homogenates at 1 uM after 6 hrs by equilibrium dialysis method. To be noted: brain homogenate.

Consider `NS(=O)(=O)Cc1noc2ccccc12` [ZONISAMIDE], for which the fraction unbound at 6 h, 1 µM in data set [1] is 0.299; in data set [2] it was 0.308; in data set [3] it was 0.598; in data set [4], 0.389; in data set [5], 0.327; in data set [6], 0.386. This compound registered a fraction unbound at 6 h, 1 µM in data set [7] of 0.428.
Regarding `Fc1ccc([C@@H]2CCNC[C@H]2COc2ccc3c(c2)OCO3)cc1` [PAROXETINE], the unbound share (fraction unbound) at 6 h, 1 µM in data set [1] stood at 0.004; in data set [2], 0.005; in data set [3], 0.006; in data set [4] it was 0.003; in data set [5] it was 0.004; in data set [6] it was 0.006. Moreover, the fraction unbound at 6 h, 1 µM in data set [7] was determined as 0.004.
Turning to `CN(C)CCCC1(c2ccc(F)cc2)OCc2cc(C#N)ccc21` (configuration not stated) [CITALOPRAM], the fraction unbound at 6 h, 1 µM in data set [1] stood at 0.06; in data set [2], 0.047; in data set [3], 0.03; in data set [4], 0.038; in data set [5], 0.05; in data set [6], 0.061. Moreover, the fraction unbound at 6 h, 1 µM in data set [7] was 0.057.
Regarding `COc1ccc2c(c1)c(CC(=O)O)c(C)n2C(=O)c1ccc(Cl)cc1` [INDOMETHACIN], the fraction unbound at 6 h, 1 µM in data set [1] is 0.052; in data set [2] it was 0.055; in data set [3] it was 0.028; in data set [4] it was 0.044; in data set [5], 0.044; in data set [6] it was 0.053. The compound also registered a fraction unbound at 6 h, 1 µM in data set [7] of 0.035.
As to `O=C1CCc2ccc(OCCCCN3CCN(c4cccc(Cl)c4Cl)CC3)cc2N1` [ARIPIPRAZOLE], the fraction unbound at 6 h, 1 µM in data set [1] stood at 0.001; in data set [2] it was 0.002; in data set [3], 0.001; in data set [4], 0.001; in data set [5], 0.001; in data set [6] it was 0.001. Besides, in data set [7], the unbound share (fraction unbound) at 6 h, 1 µM is 0.001.
As for `CC(CC(c1ccccc1)c1ccccc1)NC(C)(C)C` (configuration not stated) [TERODILINE], the fraction unbound at 6 h, 1 µM in data set [1] turned out to be 0.049; in data set [2], 0.028; in data set [3], 0.02; in data set [4], 0.059; in data set [5] it was 0.025; in data set [6], 0.071. The compound further yielded a fraction unbound at 6 h, 1 µM in data set [7] of 0.148.
Consider `CNCCC=C1c2ccccc2CCc2ccccc21` [NORTRIPTYLINE], for which the fraction unbound at 6 h, 1 µM in data set [1] was found to be 0.008; in data set [2], 0.006; in data set [3], 0.005; in data set [4] it was 0.006; in data set [5], 0.007; in data set [6], 0.009. In addition, the fraction unbound at 6 h, 1 µM in data set [7] is 0.007.
As for `O=C1NC(=O)C(c2ccccc2)(c2ccccc2)N1` [PHENYTOIN], the fraction unbound at 6 h, 1 µM in data set [1] came out at 0.088; in data set [2] it was 0.095; in data set [3] it was 0.134; in data set [4], 0.082; in data set [5], 0.1; in data set [6] it was 0.114. Further, in data set [7], the fraction unbound at 6 h, 1 µM turned out to be 0.259.
Take `CCN(CC)C(=O)/C(C#N)=C/c1cc(O)c(O)c([N+](=O)[O-])c1` [ENTACAPONE]: the free fraction (fraction unbound) at 6 h, 1 µM in data set [1] is 0.026; in data set [2], 0.025; in data set [3], 0.017; in data set [4], 0.019; in data set [5] it was 0.021; in data set [6] it was 0.031. In data set [7], this compound came in with a fraction unbound at 6 h, 1 µM of 0.02.
Take `CN1[C@@H]2CC[C@H]1C[C@@H](OC(=O)c1c[nH]c3ccccc13)C2` [TROPISETRON]: the fraction unbound at 6 h, 1 µM in data set [1] came to 0.059; in data set [2], 0.053; in data set [3] it was 0.045; in data set [4] it was 0.048; in data set [5], 0.056; in data set [6] it was 0.064. The fraction unbound at 6 h, 1 µM in data set [7] was 0.047.
Turning to `CCCCN1CCCCC1C(=O)Nc1c(C)cccc1C` (configuration not stated) [BUPIVACAINE], the fraction unbound at 6 h, 1 µM was found to be 0.274 in data set [1]; 0.232 in data set [2]; 0.098 in data set [3]; 0.204 in data set [4]; 0.15 in data set [5]; 0.195 in data set [6]. The fraction unbound at 6 h, 1 µM in data set [7] was 0.211.
